Source: patent US10479782B2, “Forms of lumacaftor and processes for the preparation thereof” (Mylan Laboratories LImited, priority 2015, dated 2019)

Assays:
[1] = Storage stability, physical (PXRD analysis); type: physicochemical
Method: Amorphous lumacaftor as prepared by methods herein may be characterized as amorphous by powder X-ray diffraction (PXRD). Thus, samples of amorphous lumacaftor were analyzed by X-ray diffraction on a BRUKER D-8 Discover powder diffractometer equipped with a goniometer of θ/2θ configuration and Lynx Eye detector. The Cu-anode X-ray tube was operated at 40 kV and 30 mA. The experiments were conducted over the […] of 2.0°-50.0°, 0.030° step size, and 0.4 seconds step time.
Another aspect of the present invention provides a crystalline lumacaftor acetic acid solvate. The crystalline lumacaftor acetic acid solvate prepared by methods disclosed herein may be characterized by PXRD. Thus, PXRD analyses of the crystalline lumacaftor acetic acid solvate were carried out on a PANalytical, X'Pert PRO powder diffractometer equipped with goniometer of θ/θ configuration and X'Celerator detector. The Cu-anode X-ray tube was operated at 40 kV and 30 mA. The experiments were conducted over the 2θ range of 2.0°-50.0°, 0.030° step size, and 50 seconds step time.
The lumacaftor ethyl acetate solvate prepared by methods disclosed herein may be characterized by PXRD. Thus, PXRD analyses of the lumacaftor ethyl acetate solvate were carried out on a PANalytical, X'Pert PRO powder diffractometer equipped with goniometer of θ/θ configuration and X'Celerator detector. The Cu-anode X-ray tube is operated at 40 kV and 30 mA. The experiments were conducted over the 2θ range of 2.0°-50.0°, 0.0300 step size, and 50 seconds step time.
The physical and chemical stabilities of the crystalline lumacaftor acetic acid solvate and the crystalline lumacaftor ethyl acetate solvate were determined by storing samples of each at 40° C./75% relative humidity (RH) and at 25° C./60% RH for six months. The samples were tested for stability by PXRD analysis and for purity by HPLC analysis.
(§1) As an example, Table 1 below provides data collected on amorphous lumacaftor.
(§2) As another example, Table 2 below provides data collected on crystalline lumacaftor ethyl acetate solvate and the crystalline lumacaftor acetic acid solvate.

[2] = Storage stability, chemical (purity by HPLC analysis); type: physicochemical
Method: Thus, in addition to PXRD analyses, HPLC analyses were also performed. HPLC separations may be performed on an HPLC column and detector system, such as an Kromasil 100 C18 column (150×4.6 mm, 3.5 μm) or its equivalent using a UV detector set at 220 nm with a column oven temperature of about 30° C. A flow rate of 1.0 mL/min with an injection volume of 10 μL may be used, with a run time of approximately 35 minutes.
[…] The samples were tested for stability by PXRD analysis and for purity by HPLC analysis.
as §1, §2

[3] = storage at 25° C./60% RH, 1 months
[4] = storage at 25° C./60% RH, 2 months
[5] = storage at 25° C./60% RH, 3 months
[6] = storage at 25° C./60% RH, 6 months
[7] = storage at 25° C./60% RH, 15 days
[8] = storage at 25° C./60% RH, Initial
[9] = storage at 40° C./75% RH, 1 months
[10] = storage at 40° C./75% RH, 2 months
[11] = storage at 40° C./75% RH, 3 months
[12] = storage at 40° C./75% RH, 6 months
[13] = storage at 40° C./75% RH, 15 days
[14] = storage at 40° C./75% RH, Initial
[15] = stored for 6 months at 25° C./60% and 40° C./75% relative humidity (RH)
[16] = stored for 3 months at 5±3° C. and 25° C./60% relative humidity (RH)

Row | SMILES | PXRD [1, 3] | PXRD [1, 4] | PXRD [1, 5] | PXRD [1, 6] | PXRD [1, 7] | PXRD [1, 8] | PXRD [1, 9] | PXRD [1, 10] | PXRD [1, 11] | PXRD [1, 12] | PXRD [1, 13] | PXRD [1, 14] | change in PXRD pattern on storage [1, 15] | HPLC Purity (%) [2, 3] [%] | HPLC Purity (%) [2, 4] [%] | HPLC Purity (%) [2, 5] [%] | HPLC Purity (%) [2, 6] [%] | HPLC Purity (%) [2, 7] [%] | HPLC Purity (%) [2, 8] [%] | HPLC Purity (%) [2, 9] [%] | also measured
1 | Cc1ccc(NC(=O)C2(c3ccc4c(c3)OC(F)(F)O4)CC2)nc1-c1cccc(C(=O)O)c1 [Lumacaftor ethyl acetate solvate, 3-(6-(1-(2,2-difluorobenzo[d][1,3]dioxol-5-yl)cyclopropanecarboxamido)-3-methylpyridin-2-yl)benzoic acid] | Stable | Stable | Stable | Stable | Stable | Crystalline | Stable | Stable | Stable | Stable | Stable | Crystalline | neither the lumacaftor ethyl acetate solvate nor the lumacaftor acetic acid solvate display any significant chemical degradation or any change in PXRD pattern | 99.93 | 99.95 | 99.92 | 99.95 | 99.95 | 99.97 | 99.94 | HPLC Purity (%) [2, 10]: 99.95%; HPLC Purity (%) [2, 11]: 99.95%; HPLC Purity (%) [2, 12]: 99.95%; HPLC Purity (%) [2, 13]: 99.95%; HPLC Purity (%) [2, 14]: 99.97%; chemical degradation on storage [2, 15]: neither the lumacaftor ethyl acetate solvate nor the lumacaftor acetic acid solvate display any significant chemical degradation
2 | Cc1ccc(NC(=O)C2(c3ccc4c(c3)OC(F)(F)O4)CC2)nc1-c1cccc(C(=O)O)c1 [Amorphous lumacaftor, 3-(6-(1-(2,2-difluorobenzo[d][1,3]dioxol-5-yl)cyclopropanecarboxamido)-3-methylpyridin-2-yl)benzoic acid] | Stable | Stable | Stable | – | Stable | Amorphous | – | – | – | – | – | – | – | 99.63 | 99.60 | 99.65 | – | 99.67 | 99.65 | – | PXRD ([1]; storage at 5 ± 3° C., 1 months): Stable; PXRD ([1]; storage at 5 ± 3° C., 2 months): Stable; PXRD ([1]; storage at 5 ± 3° C., 3 months): Stable; PXRD ([1]; storage at 5 ± 3° C., 15 days): Stable; PXRD ([1]; storage at 5 ± 3° C., Initial): Amorphous; change in PXRD pattern on storage [1, 16]: no change in PXRD pattern; HPLC Purity (%) ([2]; storage at 5 ± 3° C., 1 months): 99.61%; HPLC Purity (%) ([2]; storage at 5 ± 3° C., 2 months): 99.63%; HPLC Purity (%) ([2]; storage at 5 ± 3° C., 3 months): 99.64%; HPLC Purity (%) ([2]; storage at 5 ± 3° C., 15 days): 99.67%; HPLC Purity (%) ([2]; storage at 5 ± 3° C., Initial): 99.65%; chemical degradation on storage [2, 16]: no significant chemical degradation
3 | Cc1ccc(NC(=O)C2(c3ccc4c(c3)OC(F)(F)O4)CC2)nc1-c1cccc(C(=O)O)c1 [Lumacaftor acetic acid solvate, 3-(6-(1-(2,2-difluorobenzo[d][1,3]dioxol-5-yl)cyclopropanecarboxamido)-3-methylpyridin-2-yl)benzoic acid] | Stable | Stable | Stable | Stable | Stable | Crystalline | Stable | Stable | Stable | Stable | Stable | Crystalline | neither the lumacaftor ethyl acetate solvate nor the lumacaftor acetic acid solvate display any significant chemical degradation or any change in PXRD pattern | 99.92 | 99.92 | 99.89 | 99.93 | 99.92 | 99.84 | 99.93 | HPLC Purity (%) [2, 10]: 99.93%; HPLC Purity (%) [2, 11]: 99.89%; HPLC Purity (%) [2, 12]: 99.92%; HPLC Purity (%) [2, 13]: 99.92%; HPLC Purity (%) [2, 14]: 99.84%; chemical degradation on storage [2, 15]: neither the lumacaftor ethyl acetate solvate nor the lumacaftor acetic acid solvate display any significant chemical degradation
